According to US11655244B2, “Carbazole compounds and methods of use thereof” (GSNO Therapeutics, Inc, priority 2017, dated 2023):
Read-outs that look alike come from different tables or passages of the source.

How the values were obtained:
[1] = tested on: Db/db mouse aorta segments; experiment: Vascular reactivity of aorta segments (tensometer); conditions: db/db mice; vs vehicle
Description: Vascular reactivity: Db/db mouse aorta segments were equilibrated in oxygenated PBS (95% O2 and 5% CO2) at 37° C. Following equilibration, 1 μM phenylephrine was added to each ring for submaximal contraction. After stabilization, Compound 17 was added to the rings and the effect on the muscle tone of the aorta segments was monitored with a tensometer as dose-responses from 10^-8 M to 10^-5 M for acetylcholine (“Ach”) and A23187 (5-(methylamino)-2-({(2R,3R,6S,8S,9R,11R)-3,9,11-trimethyl-8-[(1S)-1-methyl-2-oxo-2-(1H-pyrrol-2-yl)ethyl]-1,7-dioxaspiro[5.5]undec-2-yl}methyl)-1,3-benzoxazole-4-carboxylic). 8-Isoprostane was measured in plasma and heart homogenates by standard Elisa methods.

[2] = target: GSNOR enzyme (Homo sapiens, UniProt P11766); experiment: GSNOR inhibition assay (rate of NADH consumption, 340 nm absorbance); type: biochemical
Description: The following compounds were also prepared based on the methods described herein, using the appropriate starting materials. Table 2a and Table 2b also provides the % GSNOR inhibition at 20 μM of compounds described herein. […] The buffer was 100 mM phosphate buffer (pH 7.4.) The rate of NADH consumption for each well was determined by ultraviolet spectroscopy. Plates were read on a Molecular Devices Spectra Max UV/Visible Spectrophotometer/plate reader and the change in 340 nm absorbance at 25° C. was recorded for each well at 10 sec intervals over the duration of the recording period (2˜5 minutes). The rate was measured from the linear portion of the curve. Final test compound concentration was 20 μM. The mean % inhibition from 3 test compound wells and 5 control wells was measured as the percentage of the mean no compound+enzyme−the mean no enzyme, no compound control.

[3] = tested on: non-alcoholic steatohepatitis (NASH) in male C57BL/6 mice; experiment: Non-alcoholic steatohepatitis (NASH) model, Streptozotocin plus 60% kcal fat diet; type: in vivo; conditions: for liver to body weight ratio: disease control 0.066; for decrease of percentage collagen proportion area (CPA), Masson's trichrome staining, liver: vs disease control
Description: Timed pregnant mice (n=44) were selected for the study. The delivered pups were subcutaneously injected on post-natal day 2 with 200 μg of Streptozotocin and were allowed to remain with the mother until they reached the weanling age. After weanling, the male pups were selected and fed with 60% kcal fat diet (Research Diet-D12492) for next 6 weeks. All the animals were observed once daily for clinical signs and twice daily for morbidity and mortality.
Mice were dosed with vehicle, Compound 17 (at 3 mg/kg or 10 mg/kg) and 10 mg/kg of reference compound (either Obeticholic acid (OCA) or Elafibranor (ELA, GFT505)) once daily before the start of dark cycle (6:00 PM) from day 0 to 21. Animal body weight measurements were made daily for the complete duration of the experiment. Animals were dosed for 21 days (from week 9 to 12) with the test and reference compounds. Blood glucose was estimated before the treatment start, day 11 and on the termination day. Histopathology analysis including the H&E staining, Masson's trichrome staining and the Oil-red-O (ORO) staining was performed for the liver tissues.

GSNOR enzyme, sequence (P11766 whole entry): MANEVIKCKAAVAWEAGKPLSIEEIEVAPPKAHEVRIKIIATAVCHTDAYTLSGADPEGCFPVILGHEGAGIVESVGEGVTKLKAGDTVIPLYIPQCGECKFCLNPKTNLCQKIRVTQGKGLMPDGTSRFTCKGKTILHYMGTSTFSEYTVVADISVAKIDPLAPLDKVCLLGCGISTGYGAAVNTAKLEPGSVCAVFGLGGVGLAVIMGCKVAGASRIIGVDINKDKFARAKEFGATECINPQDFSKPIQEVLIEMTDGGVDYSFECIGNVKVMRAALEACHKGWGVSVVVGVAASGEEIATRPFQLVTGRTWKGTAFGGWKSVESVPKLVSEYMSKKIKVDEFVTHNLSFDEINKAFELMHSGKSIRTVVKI

Compound: NC(=O)CCn1c2ccc(-n3ccnc3)cc2c2ccc(CCC(=O)O)cc21 [Compound 17, 3-(imidazol-1(H)-yl)-7-(2-carboxylethyl)-9(H)-(2-aminocarbonylethyl) carbazole]
- vascular reactivity [1]: increased their vascular reactivity
- inhibition at 20 µM ([2]; Table 2a, test compound 20 μM, pH 7.4, 25° C., read-out: % Inhibit. at 20 μM): 92.8%
- inhibition at 20 µM ([2]; Table 2b, test compound 20 uM, read-out: % GSNOR Inhibition at 20 uM): 92.8%
- ORO (Oil-Red-O) steatosis score relative to disease control ([3]; 3 mg/kg): −28%
- change of liver to body weight ratio compared with disease control ([3]; 3 mg/kg): −18.5%
- steatosis and lobular inflammation in the liver as indicated by the NAS ([3]; 3 mg/kg and 10 mg/kg): markedly reduced steatosis and lobular inflammation in the liver
- weight put on relative to naïve controls at day 21 ([3]; 3 mg/kg): +1.3%
- liver to body weight ratio ([3]; 3 mg/kg): 0.054
- decrease of percentage collagen proportion area (CPA), Masson's trichrome staining, liver ([3]; 3 mg/kg): 29%
- ORO (Oil-Red-O) steatosis score relative to disease control ([3]; 10 mg/kg): −52%
- change of liver to body weight ratio compared with disease control ([3]; 10 mg/kg): −16.2%
- reduction of plasma glucose relative to disease control ([3]; 10 mg/kg, i.p., p<0.01): 17.4%
- weight put on relative to naïve controls at day 21 ([3]; 10 mg/kg): −43%
- liver to body weight ratio ([3]; 10 mg/kg): 0.055
- decrease of percentage collagen proportion area (CPA), Masson's trichrome staining, liver ([3]; 10 mg/kg): 20%
- body weight increase compared with disease controls ([3]; 3 and 10 mg/kg, 21 days of treatment): both less than disease controls
- NAS (in words) ([3]; 3 and 10 mg/kg, p<0.05): significantly decreased the NAS
- change in body weight (g), Mean ([3]; Day 1, 3 mg/kg once daily): 0.00 g
- change in body weight (g), Mean ([3]; Day 1, 10 mg/kg once daily): 0.00 g
- change in body weight (g), Mean ([3]; Day 2, 3 mg/kg once daily): 0.54 g
- change in body weight (g), Mean ([3]; Day 2, 10 mg/kg once daily): 0.65 g
- change in body weight (g), Mean ([3]; Day 3, 3 mg/kg once daily): 0.85 g
- change in body weight (g), Mean ([3]; Day 3, 10 mg/kg once daily): 0.96 g
- change in body weight (g), Mean ([3]; Day 4, 3 mg/kg once daily): 0.48 g
- change in body weight (g), Mean ([3]; Day 4, 10 mg/kg once daily): 0.76 g
- change in body weight (g), Mean ([3]; Day 5, 3 mg/kg once daily): 0.35 g
- change in body weight (g), Mean ([3]; Day 5, 10 mg/kg once daily): 0.81 g
- change in body weight (g), Mean ([3]; Day 6, 3 mg/kg once daily): 0.68 g
- change in body weight (g), Mean ([3]; Day 6, 10 mg/kg once daily): 0.84 g
- change in body weight (g), Mean ([3]; Day 7, 3 mg/kg once daily): 0.54 g
- change in body weight (g), Mean ([3]; Day 7, 10 mg/kg once daily): 0.19 g
- change in body weight (g), Mean ([3]; Day 8, 3 mg/kg once daily): 0.21 g
- change in body weight (g), Mean ([3]; Day 8, 10 mg/kg once daily): 0.78 g
- change in body weight (g), Mean ([3]; Day 9, 3 mg/kg once daily): 0.53 g
- change in body weight (g), Mean ([3]; Day 9, 10 mg/kg once daily): 0.80 g
- change in body weight (g), Mean ([3]; Day 10, 3 mg/kg once daily): 0.56 g
- change in body weight (g), Mean ([3]; Day 10, 10 mg/kg once daily): 0.89 g
- change in body weight (g), Mean ([3]; Day 11, 3 mg/kg once daily): 0.40 g
- change in body weight (g), Mean ([3]; Day 11, 10 mg/kg once daily): 0.91 g
- change in body weight (g), Mean ([3]; Day 12, 3 mg/kg once daily): -0.49 g
- change in body weight (g), Mean ([3]; Day 12, 10 mg/kg once daily): -0.08 g
- change in body weight (g), Mean ([3]; Day 13, 3 mg/kg once daily): 0.81 g
- change in body weight (g), Mean ([3]; Day 13, 10 mg/kg once daily): 0.74 g
- change in body weight (g), Mean ([3]; Day 14, 3 mg/kg once daily): 1.10 g
- change in body weight (g), Mean ([3]; Day 14, 10 mg/kg once daily): 0.71 g
- change in body weight (g), Mean ([3]; Day 15, 3 mg/kg once daily): 0.84 g
- change in body weight (g), Mean ([3]; Day 15, 10 mg/kg once daily): 1.01 g
- change in body weight (g), Mean ([3]; Day 16, 3 mg/kg once daily): 1.32 g
- change in body weight (g), Mean ([3]; Day 16, 10 mg/kg once daily): 1.09 g
- change in body weight (g), Mean ([3]; Day 17, 3 mg/kg once daily): 1.38 g
- change in body weight (g), Mean ([3]; Day 17, 10 mg/kg once daily): 1.13 g
- change in body weight (g), Mean ([3]; Day 18, 3 mg/kg once daily): 1.11 g
- change in body weight (g), Mean ([3]; Day 18, 10 mg/kg once daily): 0.97 g
- change in body weight (g), Mean ([3]; Day 19, 3 mg/kg once daily): 1.22 g
- change in body weight (g), Mean ([3]; Day 19, 10 mg/kg once daily): 1.16 g
- change in body weight (g), Mean ([3]; Day 20, 3 mg/kg once daily): 1.56 g
- change in body weight (g), Mean ([3]; Day 20, 10 mg/kg once daily): 0.80 g
- change in body weight (g), Mean ([3]; Day 21, 3 mg/kg once daily): 1.57 g
- change in body weight (g), Mean ([3]; Day 21, 10 mg/kg once daily): 0.89 g
